Measured values from the supplement of paper PMC11616607.

Key:
Assay in all cases: drug sensitivity score (DSS) from 5-point dose-response viability curve (DSS (area-under-curve based score)); higher = more sensitive (stronger growth inhibition or killing); extreme values may be limits of the assay
Details in all cases: exposure time: 72 h; concentration range: 5 concentrations over 10,000-fold range
[1] = test system: Kuramochi
How it was run: (§1)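 Drug sensitivity scores were calculated in Breeze software for each cell line and drug pair; higher scores indicate more sensitivity. A score of zero indicates no response. The underlying assay used 384-well plates: drugs were placed by an Echo 550 acoustic dispenser at five concentrations spanning a 10,000-fold range, 1,500 ovarian cancer or normal ovarian cells were added per well, and cells were kept 3 days at 37°C, 5% CO2. Viability was then measured with CellTiter-Glo luminescence on a PHERAstar FS.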

[2] = test system: HOSE1C
How it was run: as §1

[3] = test system: COV318
How it was run: as §1

[4] = test system: OV90
How it was run: as §1

[5] = test system: CAOV3
How it was run: as §1

[6] = test system: OVCAR4
How it was run: as §1

[7] = test system: OVCAR5
How it was run: as §1

[8] = test system: OVCAR8
How it was run: as §1

[9] = test system: Ovsaho
How it was run: as §1

[10] = test system: COV362
How it was run: as §1

[11] = test system: JHOS2
How it was run: as §1

[12] = test system: HOSE2C
How it was run: as §1

| SMILES | drug sensitivity score [1] | drug sensitivity score [2] | drug sensitivity score [3] | drug sensitivity score [4] | drug sensitivity score [5] | drug sensitivity score [6] | drug sensitivity score [7] | drug sensitivity score [8] | drug sensitivity score [9] | drug sensitivity score [10] | drug sensitivity score [11] | drug sensitivity score [12] |
| --- | --- | --- | --- | --- | --- | --- | --- | --- | --- | --- | --- | --- |
| COc1cc(OC)c(/C=C/S(=O)(=O)Cc2ccc(OC)c(NCC(=O)O)c2)c(OC)c1 [Rigosertib] | 14.9 | 28.4 | 11.7 | 20.2 | 23.4 | 10.9 | 17 | 25.4 | 18.9 | 9.8 | 11.5 | 20.8 |
| C[C@H]1CNCCCN1S(=O)(=O)c1cccc2cncc(F)c12 [Ripasudil] | 0 | 2 | 0 | 0 | 0 | 0 | 0 | 0 | 0 | 0 | 0 | 0.6 |
| C=CC(=O)Nc1cccc(Nc2nc(Nc3ccc(N4CCN(C(C)=O)CC4)cc3OC)ncc2C(F)(F)F)c1 [Rociletinib] | 3.6 | 4.2 | 2.6 | 5.5 | 7.9 | 3 | 7.5 | 5.8 | 6.9 | 3.3 | 2.9 | 6.8 |
| O=C(CCCCCCNC(=O)c1cnc(N(c2ccccc2)c2ccccc2)nc1)NO [Rocilinostat] | 3.3 | 9.3 | 2.7 | 6 | 5.2 | 1.4 | 6.9 | 7.1 | 1.9 | 0 | 1.6 | 5.7 |
| C/C=C1\NC(=O)[C@H]2CSSCC/C=C/[C@H](CC(=O)N[C@H](C(C)C)C(=O)N2)OC(=O)[C@H](C(C)C)NC1=O [Romidepsin] | 27.8 | 39.3 | 12.3 | 29.8 | 28.2 | 20.8 | 33.3 | 28.1 | 25.9 | 11.9 | 22.7 | 35.8 |
| Cc1nc(C(=O)NCC(=O)O)c(O)c2ccc(Oc3ccccc3)cc12 [Roxadustat] | 0.4 | 0 | 0 | 0 | 1.3 | 0.3 | 0 | 0 | 0 | 0 | 0.1 | 0 |
| CN(C)C[C@@H]1CCn2cc(c3ccccc32)C2=C(C(=O)NC2=O)c2cn(c3ccccc23)CCO1 [Ruboxistaurin] | 7.2 | 6.3 | 7.7 | 6.4 | 7 | 2.5 | 5.6 | 6.6 | 9.2 | 2.5 | 8.8 | 6.2 |
| CNCc1ccc(-c2[nH]c3cc(F)cc4c3c2CCNC4=O)cc1 [Rucaparib] | 0.3 | 0 | 0.5 | 1.7 | 0 | 0 | 1.2 | 1.8 | 0.4 | 0 | 0.7 | 0 |
| N#CC[C@H](C1CCCC1)n1cc(-c2ncnc3[nH]ccc23)cn1 [Ruxolitinib] | 0 | 0 | 0 | 0.1 | 0 | 0 | 0 | 0.1 | 0 | 0 | 1 | 0 |
| CC(C)N(CCCNC(=O)Nc1ccc(C(C)(C)C)cc1)C[C@H]1O[C@@H](n2cc(Br)c3c(N)ncnc32)[C@H](O)[C@@H]1O [SGC0946] | 0 | 0 | 0 | 2.3 | 0 | 0.1 | 1.7 | 0 | 0.1 | 3.4 | 0 | 0 |
| COc1ccc(CCc2nc3cc(-c4c(C)noc4C)ccc3n2C[C@H](C)N2CCOCC2)cc1Cl [SGC-CBP30] | 6.6 | 11 | 3.1 | 3.4 | 3.7 | 2 | 2.9 | 5.7 | 6.6 | 0.2 | 1.7 | 6.1 |
| CN1CCC(CNc2ccc3ncc(-c4cccc(OC(F)(F)F)c4)n3n2)CC1 [SGI-1776] | 5.1 | 8 | 4.7 | 5.6 | 5.1 | 3.3 | 6.9 | 6 | 7.7 | 4.3 | 5.2 | 7.2 |
| CN(CC(=O)N(Cc1ccc(C2CCCCC2)cc1)c1ccc(C(=O)O)cc1)S(=O)(=O)c1c(F)c(F)c(F)c(F)c1F [SH-4-54] | 6.6 | 7.5 | 5.1 | 7.4 | 8.1 | 6.2 | 5.2 | 5.8 | 5.7 | 4.5 | 5.2 | 7.5 |
| CCc1c2c(nc3ccc(O)cc13)-c1cc3c(c(=O)n1C2)COC(=O)[C@]3(O)CC [SN-38] | 14.6 | 37.3 | 13.8 | 24.6 | 37.9 | 14.4 | 24 | 28.6 | 21.2 | 16.8 | 25.2 | 36.4 |
| CC(C)(C)c1cnc(CSc2cnc(NC(=O)C3CCNCC3)s2)o1 [SNS-032] | 15.8 | 21.2 | 11 | 16.1 | 16.2 | 13.9 | 18.5 | 20 | 18.9 | 13.9 | 23.3 | 12.1 |
| Cc1cc2c(C(=O)NC[C@H](C)c3ccccc3)c(O)c(O)cc2c(O)c1-c1c(C)cc2c(C(=O)NC[C@H](C)c3ccccc3)c(O)c(O)cc2c1O [Sabutoclax] | 6.7 | 18 | 8.8 | 11.2 | 15.4 | 8.3 | 10.8 | 15.9 | 8.2 | 9 | 8.1 | 16.1 |
| CC[C@@H](C(=O)[C@@H](C)[C@@H](O)[C@H](C)[C@@H]1O[C@@H]([C@@H](CC)C(=O)O)CC[C@@H]1C)[C@H]1O[C@]2(C=C[C@@H](O)[C@]3(CC[C@@](C)([C@H]4CC[C@](O)(CC)[C@H](C)O4)O3)O2)[C@H](C)C[C@@H]1C [Salinomycin] | 21 | 21.2 | 13.4 | 19.4 | 15.4 | 14.2 | 13.2 | 17.9 | 27.1 | 8.2 | 18.3 | 22.1 |
| CC(C)n1nc(-c2ccc3oc(N)nc3c2)c2c(N)ncnc21 [Sapanisertib] | 8.9 | 13 | 8.2 | 15.2 | 8.4 | 10.7 | 12.4 | 9.8 | 14.6 | 3.2 | 7.4 | 10.9 |
| CNC(=O)CN1CCC(Oc2cc3c(Nc4cccc(Cl)c4F)ncnc3cc2OC)CC1 [Sapitinib] | 0 | 0 | 0 | 0 | 6.8 | 0 | 1.7 | 0 | 0.7 | 0 | 0 | 0 |
| CN1CCN(CCOc2cc(OC3CCOCC3)c3c(Nc4c(Cl)ccc5c4OCO5)ncnc3c2)CC1 [Saracatinib] | 9.7 | 2 | 0.4 | 5 | 8.2 | 3.8 | 9.2 | 5.1 | 7 | 5.6 | 3.1 | 5 |
| CC1=C2C[C@H]3[C@@H](CC[C@@H]4C[C@H](NS(C)(=O)=O)CC[C@@]43C)[C@@H]2CC[C@@]2(C1)O[C@@H]1C[C@H](C)CN[C@H]1[C@H]2C [Saridegib] | 0 | 2.3 | 0 | 0 | 0.5 | 0 | 0 | 0.4 | 0 | 0 | 0 | 0.1 |
| O=C(/C=C\n1cnc(-c2cc(C(F)(F)F)cc(C(F)(F)F)c2)n1)NNc1cnccn1 [Selinexor] | 8.1 | 29 | 8.2 | 8.2 | 18.7 | 10.7 | 15.3 | 17.4 | 16.5 | 7.9 | 13.9 | 9.3 |
| Cc1cc(F)c(C(=O)Nc2cccc(-c3nncn3C(C)C)n2)cc1-n1cnc(C2CC2)c1 [Selonsertib] | 0 | 0 | 0 | 0.1 | 0 | 0 | 0 | 0 | 0 | 0 | 0 | 0 |
| Cn1cnc2c(F)c(Nc3ccc(Br)cc3Cl)c(C(=O)NOCCO)cc21 [Selumetinib] | 5.4 | 0.2 | 0 | 20.1 | 11.2 | 4.2 | 11.2 | 2.1 | 11.1 | 5.8 | 5.4 | 0 |
| CN1CCN(C(=O)c2ccc3cc(CCNc4ncnc5ccc(C#N)cc45)ccc3c2)CC1 [Senexin B] | 2.6 | 0 | 0 | 0.5 | 0.2 | 1.1 | 1.7 | 0.2 | 1.3 | 0 | 0 | 0 |
| Nc1nc2cc(-c3ccc4ncc(C(=O)N5CCOCC5)n4c3)ccc2o1 [Serabelisib] | 0 | 0 | 0 | 0.1 | 2.9 | 0 | 1.8 | 0 | 0.8 | 0 | 0 | 5.1 |
| O=C(O)c1ccc2c(c1)nc(Nc1cccc(Cl)c1)c1ccncc12 [Silmitasertib] | 5.5 | 7.7 | 3.2 | 5.8 | 8.6 | 3.3 | 5.3 | 4.7 | 4.7 | 0.9 | 4.4 | 4.5 |
| CCC(C)(C)C(=O)O[C@H]1C[C@@H](C)C=C2C=C[C@H](C)[C@H](CC[C@@H]3C[C@@H](O)CC(=O)O3)[C@H]21 [Simvastatin] | 1.3 | 8.7 | 0 | 1.5 | 0.1 | 0.7 | 0 | 2.9 | 3.5 | 0.4 | 0.2 | 8.8 |
| CO[C@H]1C[C@@H]2CC[C@@H](C)[C@@](O)(O2)C(=O)C(=O)N2CCCC[C@H]2C(=O)O[C@H]([C@H](C)C[C@@H]2CC[C@@H](O)[C@H](OC)C2)CC(=O)[C@H](C)/C=C(\C)[C@@H](O)[C@@H](OC)C(=O)[C@H](C)C[C@H](C)/C=C/C=C/C=C/1C [Sirolimus] | 3.8 | 4.8 | 1.2 | 7.7 | 3.9 | 1.9 | 4.3 | 4 | 4.4 | 0 | 3.6 | 0 |
